Test results as given in US20200262813A1, “1,5,7-TRISUBSTITUTED ISOQUINOLINE DERIVATIVES, PREPARATION THEREOF, AND USE THEREOF IN MEDICINES” (SHANGHAI HAIYAN PHARMACEUTICAL TECHNOLOGY CO., LTD., priority 2016, published 2020).
Like-named read-outs stand apart in the source and are kept apart here.

Molecular target: Recombinant PRC2 (EZH2-Y641F) (Homo sapiens, UniProt Q15910, Y641F)
Experiment: In vitro methyltransferase activity test (LANCE Ultra);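 also: compounds tested as an 8-point threefold dilution series, fluorescence read after 1 h detection step at room temperature, IC50 derived from a four-parameter curve fit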
Details: LANCE Ultra detection, 3 hours reaction
[1] = EZH2 Y641F IC50, Recombinant PRC2 (EZH2-Y641F)

Recombinant PRC2 (EZH2-Y641F), sequence (Q15910 whole entry Y641F): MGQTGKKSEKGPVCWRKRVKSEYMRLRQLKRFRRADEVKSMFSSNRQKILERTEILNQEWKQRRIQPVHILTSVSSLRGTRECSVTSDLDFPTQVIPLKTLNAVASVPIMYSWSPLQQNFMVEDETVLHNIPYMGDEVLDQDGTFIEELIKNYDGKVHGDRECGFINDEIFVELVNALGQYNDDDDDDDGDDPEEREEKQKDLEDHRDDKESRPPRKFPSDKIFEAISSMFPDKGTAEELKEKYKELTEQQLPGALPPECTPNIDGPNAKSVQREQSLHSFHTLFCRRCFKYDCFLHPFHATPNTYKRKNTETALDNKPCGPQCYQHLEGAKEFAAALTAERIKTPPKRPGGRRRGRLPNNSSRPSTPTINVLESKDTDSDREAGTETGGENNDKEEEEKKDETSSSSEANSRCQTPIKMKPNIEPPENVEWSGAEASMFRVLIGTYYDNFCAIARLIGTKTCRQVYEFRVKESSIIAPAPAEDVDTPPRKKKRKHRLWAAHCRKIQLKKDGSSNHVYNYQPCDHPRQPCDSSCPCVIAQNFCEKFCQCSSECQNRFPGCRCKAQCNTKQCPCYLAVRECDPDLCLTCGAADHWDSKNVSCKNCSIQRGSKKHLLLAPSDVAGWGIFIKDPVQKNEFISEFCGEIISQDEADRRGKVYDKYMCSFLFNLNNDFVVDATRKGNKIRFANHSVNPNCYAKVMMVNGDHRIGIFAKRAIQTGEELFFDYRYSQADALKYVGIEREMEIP
Recombinant PRC2 (EZH2-Y641F), sequence (O75530 whole entry partner): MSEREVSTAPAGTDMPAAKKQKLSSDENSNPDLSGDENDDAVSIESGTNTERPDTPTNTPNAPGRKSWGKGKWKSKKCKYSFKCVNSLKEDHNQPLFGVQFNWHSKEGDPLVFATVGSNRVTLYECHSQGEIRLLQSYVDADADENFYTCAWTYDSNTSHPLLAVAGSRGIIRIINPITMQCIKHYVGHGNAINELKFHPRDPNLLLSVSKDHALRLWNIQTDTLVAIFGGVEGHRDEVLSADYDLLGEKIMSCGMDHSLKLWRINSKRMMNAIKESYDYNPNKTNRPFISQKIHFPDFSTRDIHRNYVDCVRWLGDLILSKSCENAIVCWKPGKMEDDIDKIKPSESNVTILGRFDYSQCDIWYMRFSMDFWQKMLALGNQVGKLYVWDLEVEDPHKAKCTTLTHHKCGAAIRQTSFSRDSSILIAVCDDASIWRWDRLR
Recombinant PRC2 (EZH2-Y641F), sequence (Q15022 whole entry partner): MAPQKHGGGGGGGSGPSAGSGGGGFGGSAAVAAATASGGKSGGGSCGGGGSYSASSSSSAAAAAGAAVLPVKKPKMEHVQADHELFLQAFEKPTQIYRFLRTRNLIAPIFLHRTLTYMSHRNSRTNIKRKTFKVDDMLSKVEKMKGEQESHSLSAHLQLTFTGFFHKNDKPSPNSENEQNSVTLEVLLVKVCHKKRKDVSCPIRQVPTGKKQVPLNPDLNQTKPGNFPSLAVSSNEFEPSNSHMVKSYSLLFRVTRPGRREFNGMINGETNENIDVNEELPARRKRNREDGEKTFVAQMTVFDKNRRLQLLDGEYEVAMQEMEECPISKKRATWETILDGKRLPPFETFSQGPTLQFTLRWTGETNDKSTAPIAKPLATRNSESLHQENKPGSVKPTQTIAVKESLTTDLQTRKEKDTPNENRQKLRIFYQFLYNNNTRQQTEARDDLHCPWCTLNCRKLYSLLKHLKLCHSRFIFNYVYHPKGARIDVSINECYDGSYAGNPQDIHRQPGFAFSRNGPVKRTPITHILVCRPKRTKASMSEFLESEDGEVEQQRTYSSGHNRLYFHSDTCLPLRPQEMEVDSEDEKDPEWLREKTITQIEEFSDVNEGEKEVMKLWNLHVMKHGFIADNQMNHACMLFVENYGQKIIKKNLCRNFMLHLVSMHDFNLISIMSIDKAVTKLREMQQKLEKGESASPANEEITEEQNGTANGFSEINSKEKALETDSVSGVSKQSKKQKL
Recombinant PRC2 (EZH2-Y641F), sequence (Q09028 whole entry partner): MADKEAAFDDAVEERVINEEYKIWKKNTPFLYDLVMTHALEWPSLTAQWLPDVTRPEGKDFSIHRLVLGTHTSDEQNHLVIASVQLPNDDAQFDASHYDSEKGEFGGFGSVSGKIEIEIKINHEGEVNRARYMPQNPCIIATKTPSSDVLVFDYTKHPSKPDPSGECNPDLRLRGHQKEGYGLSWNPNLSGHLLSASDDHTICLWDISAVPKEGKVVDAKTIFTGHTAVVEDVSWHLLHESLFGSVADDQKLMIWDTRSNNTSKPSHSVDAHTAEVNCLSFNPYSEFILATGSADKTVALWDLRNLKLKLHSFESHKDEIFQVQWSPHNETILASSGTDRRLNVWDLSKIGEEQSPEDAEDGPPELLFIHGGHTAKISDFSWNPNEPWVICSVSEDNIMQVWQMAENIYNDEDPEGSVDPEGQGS
Recombinant PRC2 (EZH2-Y641F), sequence (Q6ZN18 whole entry partner): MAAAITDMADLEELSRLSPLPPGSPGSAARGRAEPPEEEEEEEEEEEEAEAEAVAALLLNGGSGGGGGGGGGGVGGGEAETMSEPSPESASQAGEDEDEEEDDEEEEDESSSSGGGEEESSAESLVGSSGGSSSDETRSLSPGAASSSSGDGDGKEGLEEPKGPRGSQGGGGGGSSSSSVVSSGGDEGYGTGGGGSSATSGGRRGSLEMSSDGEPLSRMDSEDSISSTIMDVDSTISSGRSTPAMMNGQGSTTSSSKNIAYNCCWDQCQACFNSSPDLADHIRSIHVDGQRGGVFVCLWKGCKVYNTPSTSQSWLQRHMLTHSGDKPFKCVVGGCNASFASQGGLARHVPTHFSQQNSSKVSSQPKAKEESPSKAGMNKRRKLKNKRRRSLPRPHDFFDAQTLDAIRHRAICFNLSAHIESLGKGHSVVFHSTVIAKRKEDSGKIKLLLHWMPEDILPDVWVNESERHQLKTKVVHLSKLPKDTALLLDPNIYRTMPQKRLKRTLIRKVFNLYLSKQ
Description: In Vitro Methyltransferase Activity Test
Recombinant PRC2 (EZH2-Y641F) was purchased from Active motif, S-adenosyl-methionine (SAM) and Poly-L-lysine (PLL) were purchased from Sigma-Aldrich, H3(1-50)K27mel polypeptide was purchased from Cisbio. LANCEUltra system (Perkinelmer) was used for detection. In the enzyme activity test, a compound to be tested was 1:3 diluted for 8 gradient points, added into a reaction plate, and then added 100 ng recombinant enzyme. And then a buffer [20 mM Tris pH8.5, 2 mM MgCl2, 0.01% Tween-20, 1 mM TCEP] containing 2.5 M SAM/250 nM H3(1-50)K27mel premixture was added to conduct an enzyme reaction at room tempreture. After reacted for 3 hours, a dection solution containing premixed PLL, detection antibody and Ulight was added, reacted for 1 h at RT, then fluorescence was read on Tecan infinite pro. IC50s were calculated by four-factor model fitting in a XLfit software.

| SMILES | IC50 [1] [µM] | IC50 (read-out: EZH2 Y641F IC50, Recombinant PRC2 (EZH2-Y641F)) [µM] |
| --- | --- | --- |
| CCN(c1cc(-c2ccc(CN3CCOCC3)cc2)cc2c(NCc3c(C)cc(C)[nH]c3=O)nccc12)C1CCOCC1 [Compound Z-1] | 0.422 |  |
| CCN(c1cc(-c2ccc(CN3CCNCC3)cc2)cc2c(NCc3c(C)cc(C)[nH]c3=O)nccc12)C1CCOCC1 [Compound Z-8, 3-((5-(ethyl (tetrahydro-2H-pyran-4-yl)amino)-7-(4-(piperazin-1-ylmethyl)phenyl)isoquinoline-1-ylamino)methyl)-4,6-dimethyl-2(1H)-one] | 0.086 |  |
| CCN(c1cc(Cl)cc2c(NCc3c(C)cc(C)nc3O)nccc12)C1CC2CNCC2C1 (centres unmarked) [Compound Z-9, 3-((7-chloro-5-(ethyl (octahydrocyclopenta[c]pyrrol-5-yl)amino)isoquinolin-1-ylamino)methyl)-4,6-dimethylpyridine-2-ol] | 0.057 |  |
| CCN(c1cc(C(F)(F)F)cc2c(NCc3c(C)cc(C)[nH]c3=O)nccc12)C1CCNCC1 [Compound Z-13, 3-((5-(ethyl (piperidin-4-yl)amino)-7-(trifluoromethyl)isoquinolin-1-ylamino)methyl)-4,6-dimethylpyridine-2(1H)-one] | 0.092 |  |
| CCN(c1cc(-c2cn[nH]c2)cc2c(NCc3c(C)cc(C)[nH]c3=O)nccc12)C1CCOCC1 [Compound Z-14] | 0.426 |  |
| CCN(c1cc(Br)cc2c(NCc3c(C)cc(C)[nH]c3=O)nccc12)C1CCC(N(C)C)CC1 (centres unmarked) [Compound Z-15, 3-((7-bromo-5-((4-(dimethylamino)cyclohexyl) (ethyl)amino)isoquinolin-1-ylamino)methyl)-4,6-dimethyl-2(1H)-one] | 0.091 |  |
| CCN(c1cc(C(N)=O)cc2c(NCc3c(C)cc(C)[nH]c3=O)nccc12)C1CCOCC1 [Compound Z-18] | 0.284 |  |
| CCN(c1cc(C(N)=O)cc2c(NCc3c(C)cc(C)[nH]c3=O)nccc12)C1CCC(N(C)C)CC1 (centres unmarked) [Compound Z-21] |  | 0.205 |

The remaining compounds from weak to strong by IC50 [1], led by results:

| IC50 [1] [µM] | SMILES | IC50 (read-out: EZH2 Y641F IC50, Recombinant PRC2 (EZH2-Y641F)) [µM] |
| --- | --- | --- |
| 0.611 | CCN(c1cc(C#N)cc2c(NCc3c(C)cc(C)[nH]c3=O)nccc12)C1CCOCC1 [Compound Z-6, 1-((4,6-dimethyl-2-oxo-1,2-dihydropyridin-3-yl)methylamino)-5-(ethyl (tetrahydro-2H-pyran-4-yl)amino)isoquinoline-7-carbonitrile] |  |
| 0.481 | CCN(c1cc(-c2cnn(C)c2)cc2c(NCc3c(C)cc(C)[nH]c3=O)nccc12)C1CCOCC1 [Compound Z-7, 3-((5-(ethyl (tetrahydro-2H-pyran-4-yl)amino)-7-(1-methyl-1H-pyrazol-4-yl)isoquinoline-1-ylamino)methyl)-4,6-dimethylpyridin-2(1H)-one] |  |
| 0.428 | CCN(c1cc(C(F)(F)F)cc2c(NCc3c(C)cc(C)[nH]c3=O)nccc12)C1CCOCC1 [Compound Z-16, 3-((5-(ethyl (tetrahydro-2H-pyran-4-yl)amino)-7-(trifluoromethyl)isoquinolin-1-ylamino)methyl)-4,6-dimethyl-2(1H)-one] |  |
| 0.341 | CCN(c1cc(-c2ccc(N3CCOCC3)nc2)cc2c(NCc3c(C)cc(C)[nH]c3=O)nccc12)C1CCOCC1 [Compound Z-28] |  |
| 0.295 | CCN(c1cc(Cl)cc2c(NCc3c(C)cc(C)[nH]c3=O)nccc12)C1CCOCC1 [Compound Z-4, 3-((7-chloro-5-(ethyl (tetrahydro-2H-pyran-4-yl)amino)isoquinolin-1-ylamino)methyl)-4,6-dimethyl-2(1H)-one] |  |
| 0.212 | CCN(c1cc(-c2ccc(CN3CCCCC3)cc2)cc2c(NCc3c(C)cc(C)[nH]c3=O)nccc12)C1CCOCC1 [Compound Z-23] |  |
| 0.186 | CCN(c1cc(Br)cc2c(NCc3c(C)cc(C)[nH]c3=O)nccc12)C1CCOCC1 [Compound Z-3, 3-((7-bromo-5-(ethyl (tetrahydro-2H-pyran-4-yl)amino)isoquinolin-1-ylamino)methyl)-4,6-dimethyl-2(1H)-one] |  |
| 0.152 | CCN(c1cc(-c2ccc(N3CCN(C)CC3)nc2)cc2c(NCc3c(C)cc(C)[nH]c3=O)nccc12)C1CCOCC1 [Compound Z-24] |  |
| 0.096 | CCN(CC)Cc1ccc(-c2cc(N(CC)C3CCOCC3)c3ccnc(NCc4c(C)cc(C)[nH]c4=O)c3c2)cc1 [Compound Z-27] |  |
